pIC50: −log10 of the molar value.
Columns and labels:
[1] = biological target: T1, porcine pancreatic lipase (Sus scrofa, UniProt P00591); experiment: Lipase inhibitory activity assay (4-MUO substrate, fluorescence); assay type: biochemical; conditions: for pIC50: porcine pancreatic lipase, 4-MUO substrate, 25° C., 30 minutes, pH 8.0
T1 construct: purchased Sigma
T1 sequence (P00591 1-450): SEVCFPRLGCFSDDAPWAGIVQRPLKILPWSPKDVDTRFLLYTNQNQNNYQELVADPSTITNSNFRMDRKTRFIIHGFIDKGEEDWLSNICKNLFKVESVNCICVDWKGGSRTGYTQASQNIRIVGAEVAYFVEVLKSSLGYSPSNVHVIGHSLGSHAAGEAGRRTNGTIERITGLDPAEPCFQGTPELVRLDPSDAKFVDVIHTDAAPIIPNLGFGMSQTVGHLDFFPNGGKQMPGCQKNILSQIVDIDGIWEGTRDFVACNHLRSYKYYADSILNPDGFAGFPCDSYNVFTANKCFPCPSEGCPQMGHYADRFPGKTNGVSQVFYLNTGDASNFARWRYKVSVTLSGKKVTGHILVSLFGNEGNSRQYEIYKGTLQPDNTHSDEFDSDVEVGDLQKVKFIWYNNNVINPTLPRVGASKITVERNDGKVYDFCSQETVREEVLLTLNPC
Experimental: A lipase activity assay was performed by using the oleate ester of fluorescent 4-methylumbelliferone (4-MUO) as a substrate to measure the fluorescence of 4-methylumbelliferone produced by reaction.
The buffer used for the assay was 13 mM Tris-HCl (pH 8.0) containing 150 mM NaCl, 1.36 mM CaCl2. The enzyme assay was performed using a 0.1 M solution of the substrate 4-MUO (Sigma) in DMSO diluted 1:1000 in said buffer and a solution of porcine pancreatic lipase (Sigma) prepared at 400 U/ml also in said buffer.
An enzymatic reaction was started by adding 25 μl of the lipase/buffer solution after 50 μl of the 4-MUO/buffer solution and 25 μl of distilled water (or an aqueous solution of each sample) were added and mixed in a 96-well microplate at 25° C. After the reaction was performed for 30 minutes, the reaction was stopped by adding 100 μl of a 0.1 M citrate buffer (pH 4.2) and the fluorescence of 4-methylumbelliferone produced by the reaction (excitation 355 nm, emission 460 nm) was measured using a fluorescence plate reader (Fluoroskan Asent CF from Labsystems).
The inhibitory activity of each test sample was determined as IC50(μM), i.e. the amount of the sample giving 50% inhibition of the activity of the control (distilled water).

[2] = reported in the literature; cited from earlier work

Molecule | pIC50 [1] | other results
O=C(O[C@@H]1Cc2c(O)cc(O)cc2O[C@H]1c1cc(O)c(O)c(O)c1)c1cc(O)c(O)c(O)c1 [(−)-gallocatechin 3-O-gallate (8), (−)-gallocatechin 3-O-gallate, reference compound] | 6.46 | 
(−)-epigallocatechin 3-O-gallate [(−)-epigallocatechin 3-O-gallate (4), reference compound] | 6.55 | lipase inhibitory activity (in words) ([1]; method of Example 1): strongest activity among the major catechins
O=C(O[C@@H]1[C@@H](c2c(O)cc(O)c3c2O[C@H](c2cc(O)c(O)c(O)c2)[C@H](OC(=O)c2cc(O)c(O)c(O)c2)C3)c2c(O)cc(O)cc2O[C@@H]1c1ccc(O)c(O)c1)c1cc(O)c(O)c(O)c1 [(−)-epicatechin 3-O-gallate (4β − 8) (−)-epigallocatechin 3-O-gallate] | 6.07 | 
Oc1cc(O)c2c(c1)O[C@H](c1cc(O)c(O)c(O)c1)[C@@H](O)C2 [(+)-gallocatechin (7), (+)-gallocatechin, reference compound] | < 3.79 | 
Oc1cc(O)c2c(c1)O[C@H](c1cc(O)c(O)c(O)c1)[C@@H](O)[C@@H]2c1c(O)cc(O)c2c1O[C@H](c1ccc(O)c(O)c1)[C@H](O)C2 [(+)-gallocatechin (4α − 8) (−)-epicatechin] | 5.54 | 
O=C(O[C@@H]1Cc2c(O)cc3c(c2O[C@@H]1c1cc(O)c(O)c(O)c1)[C@H]1c2c(O)cc(O)cc2O[C@@](c2cc(O)c(O)c(O)c2)(O3)[C@@H]1O)c1cc(O)c(O)c(O)c1 [prodelphinidin A-2 3′-O-gallate (11), prodelphinidin A-2 3′-O-gallate] | 6.77 | 
Oc1cc(O)c2c(c1)O[C@H](c1ccc(O)c(O)c1)[C@H](O)C2 [(−)-epicatechin (1), (−)-epicatechin, reference compound] | < 4.67 | 
OC1(c2ccc(Cl)cc2)c2ccccc2C2=NCCN21 (stereo not drawn) [Mazindol] |  | adverse side effects [2]: dry mouth, constipation, stomach discomfort and nausea/vomiting
O=C(O[C@@H]1Cc2c(O)cc(O)c([C@@H]3c4c(O)cc(O)cc4O[C@H](c4cc(O)c(O)c(O)c4)[C@H]3O)c2O[C@@H]1c1cc(O)c(O)c(O)c1)c1cc(O)c(O)c(O)c1 [prodelphinidin B-4 3′-O-gallate (16), prodelphinidin B-4 3′-O-gallate] | 6.65 | 
O=C(O[C@@H]1Cc2c(O)cc(O)c([C@@H]3c4c(O)cc(O)cc4O[C@H](c4ccc(O)c(O)c4)[C@H]3O)c2O[C@@H]1c1cc(O)c(O)c(O)c1)c1cc(O)c(O)c(O)c1 [(+)-catechin (α + 8) (−)-epigallocatechin 3-O-gallate] | 6.76 | 
O=C(O[C@@H]1Cc2c(O)cc(O)c([C@H]3c4c(O)cc(O)cc4O[C@H](c4cc(O)c(O)c(O)c4)[C@@H]3O)c2O[C@@H]1c1ccc(O)c(O)c1)c1cc(O)c(O)c(O)c1 [(−)-epigallocatechin (4β − 8) (−)-epicatechin 3-O-gallate] | 6.04 | 
Oc1cc(O)c2c(c1)O[C@H](c1cc(O)c(O)c(O)c1)[C@H](O)C2 [(−)-epigallocatechin (3), (−)-epigallocatechin, reference compound] | < 4.69 | 
O=C(O[C@@H]1[C@@H](c2c(O)cc(O)c3c2O[C@H](c2ccc(O)c(O)c2)[C@H](OC(=O)c2cc(O)c(O)c(O)c2)C3)c2c(O)cc(O)cc2O[C@@H]1c1cc(O)c(O)c(O)c1)c1cc(O)c(O)c(O)c1 [(−)-epigallocatechin 3-O-gallate (4β − 8) (−)-epicatechin 3-O-gallate] | 6.21 | 
Oc1cc(O)c2c(c1)O[C@H](c1cc(O)c(O)c(O)c1)[C@H](O)[C@H]2c1c(O)cc(O)c2c1O[C@H](c1cc(O)c(O)c(O)c1)[C@H](O)C2 [prodelphinidin B-2 (12), prodelphinidin B-2] | 5.53 | 
O=C(O[C@@H]1Cc2c(O)cc(O)c([C@H]3c4c(O)cc(O)cc4O[C@H](c4ccc(O)c(O)c4)[C@@H]3O)c2O[C@@H]1c1cc(O)c(O)c(O)c1)c1cc(O)c(O)c(O)c1 [(−)-epicatechin (4β − 8) (−)-epigallocatechin 3-O-gallate] | 6.83 | 
O=C(OC1Cc2c(O)cc(O)c(C3c4c(O)cc(O)cc4OC(c4cc(O)c(O)c(O)c4)C3O)c2OC1c1cc(O)c(O)c(O)c1)c1cc(O)c(O)c(O)c1 (stereo not drawn) [prodelphinidin B-2 3′-O-gallate (13), prodelphinidin B-2 3′-O-gallate] | 5.71 | 
O=C(O[C@@H]1Cc2c(O)cc(O)cc2O[C@H]1c1ccc(O)c(O)c1)c1cc(O)c(O)c(O)c1 [(−)-catechin 3-O-gallate (6), (−)-catechin 3-O-gallate, reference compound] | 6.07 | 
(−)-epicatechin 3-O-gallate [(−)-epicatechin 3-O-gallate (2), reference compound] | 6.57 | 
O=C(O[C@@H]1[C@@H](c2c(O)cc(O)c3c2O[C@H](c2cc(O)c(O)c(O)c2)[C@H](OC(=O)c2cc(O)c(O)c(O)c2)C3)c2c(O)cc(O)cc2O[C@@H]1c1cc(O)c(O)c(O)c1)c1cc(O)c(O)c(O)c1 [prodelphinidin B-2 3,3′-di-O-gallate] | 6.97 | 
Oc1cc(O)c2c(c1)OC(c1ccc(O)c(O)c1)C(O)C2 (single isomer, unassigned; (+)) [(+)-catechin (5), (+)-catechin, reference compound] | < 3.16 | 
Oc1cc(O)c2c(c1)O[C@H](c1ccc(O)c(O)c1)[C@@H](O)[C@@H]2c1c(O)cc(O)c2c1O[C@H](c1ccc(O)c(O)c1)[C@@H](O)C2 [procyanidin B-3 (10), procyanidin B-3] | 5.53 | 
Oc1cc(O)c2c(c1)O[C@H](c1cc(O)c(O)c(O)c1)[C@@H](O)[C@@H]2c1c(O)cc(O)c2c1O[C@H](c1cc(O)c(O)c(O)c1)[C@H](O)C2 [prodelphinidin B-4 (15), prodelphinidin B-4] | 5.21 | 
Oc1cc(O)c2c(c1)O[C@H](c1ccc(O)c(O)c1)[C@@H](O)[C@@H]2c1c(O)cc(O)c2c1O[C@H](c1cc(O)c(O)c(O)c1)[C@H](O)C2 [(+)-catechin (4α − 8) (−)-epigallocatechin] | 5.10 | 
CCCCCCCCCCC[C@@H](C[C@@H]1OC(=O)[C@H]1CCCCCC)OC(=O)[C@H](CC(C)C)NC=O [Xenical] |  | adverse side effects [2]: fatty stools, increased stool frequency, loose stools, diarrhea and abdominal pain
prodelphinidin B-5 3,3′-di-O-gallate | 6.25 | 
Oc1cc(O)c2c(c1)O[C@H](c1ccc(O)c(O)c1)[C@H](O)[C@H]2c1c(O)cc(O)c2c1O[C@H](c1ccc(O)c(O)c1)[C@H](O)C2 [procyanidin B-2 (9), procyanidin B-2] | 5.10 | 
